Experimental data: ChEMBL document CHEMBL1909046, “DrugMatrix in vitro pharmacology data”

How the values were obtained:
[1] = target: T1, Alpha-1B adrenergic receptor (Rattus norvegicus, UniProt P15823); assay: DRUGMATRIX: Alpha-1B adrenergic receptor radioligand binding (ligand: prazosin); type: cell membranes, Wistar, Liver, Membrane; details: Not Active = under 50% inhibition at 10 µM
T1 sequence (P15823 whole entry): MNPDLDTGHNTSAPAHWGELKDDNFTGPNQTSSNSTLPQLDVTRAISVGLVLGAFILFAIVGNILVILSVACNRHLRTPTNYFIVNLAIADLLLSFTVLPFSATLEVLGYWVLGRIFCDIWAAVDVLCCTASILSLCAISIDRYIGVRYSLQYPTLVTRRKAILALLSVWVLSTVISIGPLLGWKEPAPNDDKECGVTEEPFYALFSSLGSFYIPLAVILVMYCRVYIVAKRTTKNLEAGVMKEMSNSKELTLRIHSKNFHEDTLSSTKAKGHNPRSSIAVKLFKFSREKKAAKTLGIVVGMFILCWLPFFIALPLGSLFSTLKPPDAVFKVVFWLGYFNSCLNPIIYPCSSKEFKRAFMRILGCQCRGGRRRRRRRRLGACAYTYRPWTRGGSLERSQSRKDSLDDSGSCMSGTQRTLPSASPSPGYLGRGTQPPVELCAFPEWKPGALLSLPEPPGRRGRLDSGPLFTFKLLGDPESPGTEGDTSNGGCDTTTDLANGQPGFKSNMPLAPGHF

[2] = target: T2, Amine oxidase [flavin-containing] A (Homo sapiens, UniProt P21397); assay: DRUGMATRIX: Monoamine Oxidase MAO-A enzyme inhibition (substrate: Kynuramine); set-up: species or system BTI-TN-5B1-4; details: bti-tn-5b1-4; Not Active = under 50% inhibition at 10 µM
T2 sequence (P21397 whole entry): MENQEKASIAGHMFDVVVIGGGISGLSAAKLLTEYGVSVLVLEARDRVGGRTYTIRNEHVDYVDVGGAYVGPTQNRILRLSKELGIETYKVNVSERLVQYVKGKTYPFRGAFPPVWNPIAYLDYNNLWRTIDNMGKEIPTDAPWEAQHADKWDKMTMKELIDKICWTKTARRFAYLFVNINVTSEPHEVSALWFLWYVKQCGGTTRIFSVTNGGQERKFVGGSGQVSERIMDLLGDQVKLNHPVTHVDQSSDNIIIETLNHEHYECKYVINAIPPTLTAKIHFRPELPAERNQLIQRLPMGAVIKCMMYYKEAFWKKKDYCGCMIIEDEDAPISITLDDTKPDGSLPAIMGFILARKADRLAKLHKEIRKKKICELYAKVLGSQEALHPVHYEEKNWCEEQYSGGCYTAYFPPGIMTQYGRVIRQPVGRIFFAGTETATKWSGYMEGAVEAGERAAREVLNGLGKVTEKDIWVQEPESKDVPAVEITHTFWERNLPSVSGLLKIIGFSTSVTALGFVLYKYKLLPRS

[3] = target: Vascular endothelial growth factor receptor 1 (Homo sapiens, UniProt P17948); type: cell-based; details: huvec; also: in other assays of this panel Not Active means under 50% inhibition at 10 µM
[4] = DRUGMATRIX: beta-Lactamase enzyme inhibition (substrate: Nitrocefin); set-up: species or system Bacillus cereus; details: Not Active = under 50% inhibition at 10 µM
[5] = target: C-C chemokine receptor type 5 (Homo sapiens, UniProt P51681); type: cell membranes, HEK293, Membrane; details: hek293; also: in other assays of this panel Not Active means under 50% inhibition at 10 µM
[6] = target: T3, Angiotensin-converting enzyme (Oryctolagus cuniculus, UniProt P12822); type: tissue-based, Lung;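 also: enzymatic inhibition of angiotensin-converting enzyme measured with FAPGG as the substrate; in other assays of this panel Not Active means under 50% inhibition at 10 µM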
T3 sequence (P12822 whole entry): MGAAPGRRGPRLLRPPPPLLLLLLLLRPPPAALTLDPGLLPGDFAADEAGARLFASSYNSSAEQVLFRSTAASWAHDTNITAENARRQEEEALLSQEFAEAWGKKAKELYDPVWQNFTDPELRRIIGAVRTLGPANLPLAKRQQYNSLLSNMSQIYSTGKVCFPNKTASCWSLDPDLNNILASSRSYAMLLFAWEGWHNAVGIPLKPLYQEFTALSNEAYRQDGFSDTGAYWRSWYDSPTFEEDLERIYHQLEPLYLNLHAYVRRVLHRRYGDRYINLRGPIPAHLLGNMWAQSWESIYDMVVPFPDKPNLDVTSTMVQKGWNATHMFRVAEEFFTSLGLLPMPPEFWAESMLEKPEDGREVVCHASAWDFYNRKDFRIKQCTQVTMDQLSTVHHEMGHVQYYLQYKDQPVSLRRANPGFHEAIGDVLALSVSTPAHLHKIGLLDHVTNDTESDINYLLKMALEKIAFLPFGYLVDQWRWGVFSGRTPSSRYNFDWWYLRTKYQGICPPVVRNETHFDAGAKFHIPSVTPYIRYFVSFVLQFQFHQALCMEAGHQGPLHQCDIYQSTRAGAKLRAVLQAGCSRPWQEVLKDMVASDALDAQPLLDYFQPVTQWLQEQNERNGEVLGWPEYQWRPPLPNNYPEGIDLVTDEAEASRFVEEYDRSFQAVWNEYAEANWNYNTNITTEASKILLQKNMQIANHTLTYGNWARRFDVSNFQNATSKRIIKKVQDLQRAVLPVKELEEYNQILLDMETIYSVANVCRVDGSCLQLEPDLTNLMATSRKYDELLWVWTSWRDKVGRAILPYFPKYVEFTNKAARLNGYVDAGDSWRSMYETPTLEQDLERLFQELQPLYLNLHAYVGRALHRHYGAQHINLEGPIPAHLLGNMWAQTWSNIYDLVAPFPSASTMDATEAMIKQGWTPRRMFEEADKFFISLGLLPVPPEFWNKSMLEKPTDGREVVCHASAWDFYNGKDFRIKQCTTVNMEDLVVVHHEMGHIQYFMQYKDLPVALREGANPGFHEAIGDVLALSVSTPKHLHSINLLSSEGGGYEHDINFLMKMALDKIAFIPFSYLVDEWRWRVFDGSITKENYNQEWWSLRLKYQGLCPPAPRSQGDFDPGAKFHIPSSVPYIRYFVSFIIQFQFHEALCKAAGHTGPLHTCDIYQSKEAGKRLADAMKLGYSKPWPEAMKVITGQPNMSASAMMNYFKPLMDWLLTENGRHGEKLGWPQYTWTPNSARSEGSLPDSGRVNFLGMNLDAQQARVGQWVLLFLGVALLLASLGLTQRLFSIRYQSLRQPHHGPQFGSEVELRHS

[7] = target: Mitogen-activated protein kinase 14 (Homo sapiens, UniProt Q16539); set-up: species or system Escherichia coli;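 also: inhibition of p38alpha enzyme activity in a biochemical kinase assay, with myelin basic protein serving as substrate; in other assays of this panel Not Active means under 50% inhibition at 10 µM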
[8] = target: Sodium-dependent noradrenaline transporter (Homo sapiens, UniProt P23975); assay: DRUGMATRIX: Norepinephrine Transporter radioligand binding (ligand: [125I] RTI-55); type: cell membranes, MDCK, Membrane; details: mdck; Not Active = under 50% inhibition at 10 µM
[9] = DRUGMATRIX: Tumor Necrosis Factor (TNF), Non-Selective radioligand binding (ligand: [125I] TNF-alpha); type: cell membranes, Membrane; details: u-937; Not Active = under 50% inhibition at 10 µM

Chain of Vascular endothelial growth factor receptor 1 (P17948 whole entry): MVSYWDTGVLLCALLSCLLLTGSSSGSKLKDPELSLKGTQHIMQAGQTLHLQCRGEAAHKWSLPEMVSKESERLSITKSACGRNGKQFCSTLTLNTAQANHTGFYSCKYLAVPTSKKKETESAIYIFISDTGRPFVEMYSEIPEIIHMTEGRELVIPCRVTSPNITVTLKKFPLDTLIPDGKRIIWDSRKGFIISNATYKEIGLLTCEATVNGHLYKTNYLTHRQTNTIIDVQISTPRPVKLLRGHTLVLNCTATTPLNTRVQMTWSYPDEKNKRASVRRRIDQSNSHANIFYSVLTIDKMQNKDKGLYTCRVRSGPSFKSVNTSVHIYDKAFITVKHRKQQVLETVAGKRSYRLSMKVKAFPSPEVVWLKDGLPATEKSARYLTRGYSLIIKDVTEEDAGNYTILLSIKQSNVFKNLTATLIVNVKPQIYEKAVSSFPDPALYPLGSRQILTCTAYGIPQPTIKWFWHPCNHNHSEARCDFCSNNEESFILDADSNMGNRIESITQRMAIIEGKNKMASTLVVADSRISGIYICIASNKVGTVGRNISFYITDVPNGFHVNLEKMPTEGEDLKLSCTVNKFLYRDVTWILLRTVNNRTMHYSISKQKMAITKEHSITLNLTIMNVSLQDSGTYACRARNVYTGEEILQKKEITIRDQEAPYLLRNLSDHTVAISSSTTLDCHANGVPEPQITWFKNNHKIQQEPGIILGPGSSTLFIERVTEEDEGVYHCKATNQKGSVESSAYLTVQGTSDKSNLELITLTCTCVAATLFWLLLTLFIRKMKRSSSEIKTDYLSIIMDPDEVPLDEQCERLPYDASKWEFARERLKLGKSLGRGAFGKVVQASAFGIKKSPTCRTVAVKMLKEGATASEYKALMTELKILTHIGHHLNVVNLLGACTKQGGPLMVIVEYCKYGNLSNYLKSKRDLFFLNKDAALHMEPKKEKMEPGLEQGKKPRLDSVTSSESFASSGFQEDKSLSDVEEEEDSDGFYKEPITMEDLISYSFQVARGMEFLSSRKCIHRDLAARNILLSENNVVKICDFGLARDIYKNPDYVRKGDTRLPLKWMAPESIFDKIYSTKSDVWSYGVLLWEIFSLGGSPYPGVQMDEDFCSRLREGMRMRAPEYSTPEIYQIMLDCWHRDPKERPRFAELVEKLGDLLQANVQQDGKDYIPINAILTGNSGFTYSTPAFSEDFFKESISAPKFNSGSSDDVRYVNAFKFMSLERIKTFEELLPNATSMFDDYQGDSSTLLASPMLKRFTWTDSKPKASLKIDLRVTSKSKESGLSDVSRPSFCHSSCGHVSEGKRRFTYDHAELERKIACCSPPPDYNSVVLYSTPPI
Chain of C-C chemokine receptor type 5 (P51681 whole entry): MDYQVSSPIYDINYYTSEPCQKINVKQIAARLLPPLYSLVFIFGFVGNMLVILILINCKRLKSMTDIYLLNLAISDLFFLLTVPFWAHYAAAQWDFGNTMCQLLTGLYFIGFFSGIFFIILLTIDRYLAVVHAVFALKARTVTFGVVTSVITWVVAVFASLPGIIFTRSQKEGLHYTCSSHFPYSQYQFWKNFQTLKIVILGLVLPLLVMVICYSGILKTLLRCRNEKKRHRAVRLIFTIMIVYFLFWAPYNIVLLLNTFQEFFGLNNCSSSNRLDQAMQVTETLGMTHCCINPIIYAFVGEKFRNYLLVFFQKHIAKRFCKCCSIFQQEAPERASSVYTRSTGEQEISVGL
Chain of Sodium-dependent noradrenaline transporter (P23975 whole entry): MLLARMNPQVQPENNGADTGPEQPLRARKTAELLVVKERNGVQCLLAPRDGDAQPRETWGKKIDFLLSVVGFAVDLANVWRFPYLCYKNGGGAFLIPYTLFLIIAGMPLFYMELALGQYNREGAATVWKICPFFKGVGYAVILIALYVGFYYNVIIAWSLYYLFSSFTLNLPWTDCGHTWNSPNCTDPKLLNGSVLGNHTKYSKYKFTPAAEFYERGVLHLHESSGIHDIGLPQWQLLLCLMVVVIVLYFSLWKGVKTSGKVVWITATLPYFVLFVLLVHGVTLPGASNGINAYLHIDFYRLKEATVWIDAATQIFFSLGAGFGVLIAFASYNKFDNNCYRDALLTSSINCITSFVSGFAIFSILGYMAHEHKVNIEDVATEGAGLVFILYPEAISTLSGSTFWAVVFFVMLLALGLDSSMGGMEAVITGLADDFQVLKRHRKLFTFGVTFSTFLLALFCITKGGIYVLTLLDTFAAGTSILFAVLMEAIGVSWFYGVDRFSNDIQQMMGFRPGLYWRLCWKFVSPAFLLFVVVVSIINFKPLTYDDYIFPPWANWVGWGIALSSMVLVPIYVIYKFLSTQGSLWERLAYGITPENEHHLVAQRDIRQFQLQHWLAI
Chain of Mitogen-activated protein kinase 14 (Q16539 whole entry): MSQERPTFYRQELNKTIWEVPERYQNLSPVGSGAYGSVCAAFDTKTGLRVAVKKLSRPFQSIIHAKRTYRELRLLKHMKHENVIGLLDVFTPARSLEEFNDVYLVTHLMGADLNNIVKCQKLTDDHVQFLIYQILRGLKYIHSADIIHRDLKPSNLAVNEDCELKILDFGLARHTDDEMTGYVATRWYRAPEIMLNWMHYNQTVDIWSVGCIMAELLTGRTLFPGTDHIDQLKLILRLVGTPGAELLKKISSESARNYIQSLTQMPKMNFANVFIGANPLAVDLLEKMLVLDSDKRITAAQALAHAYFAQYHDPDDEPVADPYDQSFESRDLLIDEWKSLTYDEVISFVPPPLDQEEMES

COc1cc(NS(=O)(=O)c2ccc(N)cc2)nc(OC)n1 [SULFADIMETHOXINE]
Not Active: IC50 [1] | IC50 [2] | IC50 [3] | IC50 [4] | Ki [4] | IC50 [5] | IC50 [6] | IC50 [7] | IC50 [8] | IC50 [9] | Ki [9]

CC(=O)N[C@@H]1[C@H](Oc2c3cc4cc2Oc2ccc(cc2Cl)[C@@H](O[C@@H]2O[C@@H](CO)[C@@H](O)[C@H](O)[C@@H]2NC(C)=O)[C@@H]2NC(=O)[C@H](NC(=O)[C@@H]4NC(=O)[C@H]4NC(=O)[C@@H](Cc5ccc(c(Cl)c5)O3)NC(=O)[C@H](N)c3ccc(O)c(c3)Oc3cc(O)cc4c3)c3ccc(O)c(c3)-c3c(O[C@H]4O[C@H](CO)[C@@H](O)[C@@H](O)[C@@H]4O)cc(O)cc3[C@@H](C(=O)O)NC2=O)O[C@@H](CO)[C@@H](O)[C@@H]1O
Not Active: IC50 [1] | IC50 [2] | IC50 [3] | IC50 [4] | Ki [4] | IC50 [5] | IC50 [6] | IC50 [7] | IC50 [8] | IC50 [9] | Ki [9]

O=C1CCC(N2C(=O)c3ccccc3C2=O)C(=O)N1 (stereo not drawn) [THALIDOMIDE]
Not Active: IC50 [1] | IC50 [2] | IC50 [3] | IC50 [4] | Ki [4] | IC50 [5] | IC50 [6] | IC50 [7] | IC50 [8] | IC50 [9] | Ki [9]

CC[C@]1(O)C[C@@H]2CN(CCc3c([nH]c4ccccc34)[C@@](C(=O)OC)(c3cc4c(cc3OC)N(C)[C@H]3[C@@](O)(C(=O)OC)[C@H](OC(C)=O)[C@]5(CC)C=CCN6CC[C@]43[C@@H]65)C2)C1 [VINBLASTINE]
Not Active: IC50 [1] | IC50 [2] | IC50 [3] | IC50 [4] | Ki [4] | IC50 [5] | IC50 [6] | IC50 [7] | IC50 [8] | IC50 [9] | Ki [9]

CC1=C(CC(=O)O)c2cc(F)ccc2/C1=C\c1ccc([S+](C)[O-])cc1 (stereo not drawn)
Not Active: IC50 [1] | IC50 [2] | IC50 [3] | IC50 [4] | Ki [4] | IC50 [5] | IC50 [6] | IC50 [7] | IC50 [8] | IC50 [9] | Ki [9]

CC(C)C[C@H](NC(=O)[C@@H](O)[C@H](N)Cc1ccccc1)C(=O)O [UBENIMEX]
Not Active: IC50 [1] | IC50 [2] | IC50 [3] | IC50 [4] | Ki [4] | IC50 [5] | IC50 [6] | IC50 [7] | IC50 [8] | IC50 [9] | Ki [9]

CC(C)c1nc(CN(C)C(=O)N[C@H](C(=O)N[C@@H](Cc2ccccc2)C[C@H](O)[C@H](Cc2ccccc2)NC(=O)OCc2cncs2)C(C)C)cs1 [RITONAVIR]
Not Active: IC50 [1] | IC50 [2] | IC50 [3] | IC50 [4] | Ki [4] | IC50 [5] | IC50 [6] | IC50 [7] | IC50 [8] | IC50 [9] | Ki [9]

CC(=O)CC(c1ccccc1)c1c(O)c2ccccc2oc1=O (stereo not drawn) [WARFARIN]
Not Active: IC50 [1] | IC50 [2] | IC50 [3] | IC50 [4] | Ki [4] | IC50 [5] | IC50 [6] | IC50 [7] | IC50 [8] | IC50 [9] | Ki [9]

COCCCOc1ccnc(C[S+]([O-])c2nc3ccccc3[nH]2)c1C (stereo not drawn) [RABEPRAZOLE]
Not Active: IC50 [1] | IC50 [2] | IC50 [3] | IC50 [4] | Ki [4] | IC50 [5] | IC50 [6] | IC50 [7] | IC50 [8] | IC50 [9] | Ki [9]

N[C@H](CSC(=S)NCc1ccccc1)C(=O)O
Not Active: IC50 [1] | IC50 [2] | IC50 [3] | IC50 [4] | Ki [4] | IC50 [5] | IC50 [6] | IC50 [7] | IC50 [8] | IC50 [9] | Ki [9]

[H]/N=C(/N)N[C@H]1[C@H](O)[C@@H](O)[C@H](O[C@@H]2O[C@@H](C)[C@](O)(C=O)[C@H]2O[C@@H]2O[C@@H](CO)[C@H](O)[C@@H](O)[C@@H]2NC)[C@@H](N/C(N)=N\[H])[C@@H]1O [STREPTOMYCIN]
Not Active: IC50 [1] | IC50 [2] | IC50 [3] | IC50 [4] | Ki [4] | IC50 [5] | IC50 [6] | IC50 [7] | IC50 [8] | IC50 [9] | Ki [9]

CO[C@H]1/C=C/O[C@@]2(C)Oc3c(C)c(O)c4c(c3C2=O)C2=NC3(CCN(CC(C)C)CC3)NC2=C(NC(=O)/C(C)=C\C=C\[C@H](C)[C@H](O)[C@@H](C)[C@@H](O)[C@@H](C)[C@H](OC(C)=O)[C@@H]1C)C4=O [RIFABUTIN]
Not Active: IC50 [1] | IC50 [2] | IC50 [3] | IC50 [4] | Ki [4] | IC50 [5] | IC50 [6] | IC50 [7] | IC50 [8] | IC50 [9] | Ki [9]

C[C@@H](N)[C@H]1CC[C@H](C(=O)Nc2ccncc2)CC1 [Y-27632]
Not Active: IC50 [1] | IC50 [2] | IC50 [3] | IC50 [4] | Ki [4] | IC50 [5] | IC50 [6] | IC50 [7] | IC50 [8] | IC50 [9] | Ki [9]
